Test results from PMC8911803, “The Antiprotozoal Activity of Papua New Guinea Propolis and Its Triterpenes” (Molecules, 2022).
Values joined by “and” are separate entries in the source; they are usually repeats but may differ in a detail not shown here. Equal entries are not always repeated. Where two headings read alike, the source gives them in different places.

How the values were obtained:
T. b. brucei S427WT = experiment: Alamar blue (resazurin) assay, T. b. brucei s427 wild-type; assay type: cell-based, Trypanosoma b. brucei
Procedure: (§1) Alamar blue (resazurin) assays were used to obtain the EC50 values for PNG and its fractions in at least three independent determinations.
(§2) The extract and the purified compounds were cultured and tested against T. b. brucei, T. congolense and C. fasciculata as described previously. The T. b. brucei strains were a standard drug-sensitive lab strain, Lister 427 (wild-type) and the derived cell line B48 was developed from the wild-type by gene deletion of the drug transporter TbAT1 followed by in vitro adaptation to pentamidine, leading to the further loss of the gene encoding TbAQP2 [48], rendering it highly resistant to the diamidine and melaminophenyl arsenical classes of trypanocides. The T. congolense strains were the lab strain IL3000 and its diminazene-adapted clone 6C3 [29]. The C. fasciculata strain HS6 was a gift of Prof. Terry Smith (University of St Andrews, UK).

U937 cells = experiment: Cytotoxicity against U937 cells (resazurin); assay type: cell-based, human; conditions: for EC50 / AVG EC50 U937 cells: n = 3; for SI, selectivity index relative to T. b. brucei WT: EC50(U937)/EC50(TbbWT): U937 vs T. b. brucei WT
Procedure: U937 cells (European Collection of Cell Cultures Cat. No. 85011440, supplied by Sigma Aldrich, Dorset, UK) were cultured as described previously. U937 cells were grown to log phase at 37 °C and harvested at a density of 1 × 10^5 cells/mL in a 96-well plate (TPP, Trasadingen, Switzerland). Aliquots of 100 µL/well of the cells were added and the plate was incubated for 24 h at 37 °C, 5% CO2, 100% humidity. A 2-fold serial dilution of the test compound was carried out in growth medium, in another 96-well plate, and 100 μL of each dilution was then transferred to the cultured cells using a multichannel pipette, followed by another incubation for 24 h. Resazurin dye was then added at a final concentration of 10% (v/v) and the plates were incubated for a further 24 h, after which fluorescence was measured using a Wallac Victor 2 microplate reader (λ Ex/Em: 560/590 nm). The compounds and fractions were tested in triplicate, and cell viability was expressed as a percentage of the drug-free control. The resulting data were analysed using GraphPad Prism 8 to obtain dose-response curves and corresponding mean inhibitory concentration (EC50) values.

T. b. brucei B48 [1] = experiment: microbe, parasite or virus in culture; assay type: cell-based, Trypanosoma b. brucei; conditions: for RF resistance factor / RF resistance factor (EC50 B48/EC50 WT): T. b. brucei B48 vs S427WT
Procedure: as §1, §2

T. congolense 6C3 = experiment: microbe, parasite or virus in culture; assay type: cell-based, Trypanosoma congolense; conditions: for RF resistance factor: T. congolense 6C3 vs IL3000
T. congolense IL3000 = experiment: Antiprotozoal assay, drug-sensitive T. congolense IL3000; assay type: cell-based, Trypanosoma congolense
C. fasciculata = experiment: Antiprotozoal assay, C. fasciculata; assay type: cell-based, Crithidia fasciculata; conditions: Table 9
T. b. brucei B48 [2] = experiment: Drug sensitivity using cell count (growth curve) of T. b. brucei B48; assay type: cell-based, Trypanosoma b. brucei; conditions: 1×, 2× and 4× EC50, 2 × 10^5 cells/mL, up to 48 h
[3] = Trypanosoma brucei, Table 5, purified compounds, n = 3
[4] = Homo sapiens, U-937, Table 8, purified compounds
[5] = Trypanosoma brucei, read-out: AVG EC50 T. b. brucei B48, Table 5, purified compounds, n = 3
[6] = Trypanosoma congolense, Table 7, purified compounds, n = 3
[7] = Trypanosoma congolense, Table 7, purified compounds, n = 3, read-out: AVG EC50 T. congolense IL3000
[8] = Table 5, purified compounds, n = 3
[9] = Table 5, purified compounds, n = 3, read-out: AVG EC50 T. b. brucei B48
[10] = drug-resistant strain vs standard strain
[11] = Table 7, purified compounds, n = 3

With C[C@H]1[C@H](C)CC[C@]2(C(=O)O)CC[C@]3(C)C(=CC[C@@H]4[C@@]5(C)C[C@@H](O)[C@H](O)[C@@](C)(CO)[C@@H]5[C@H](O)C[C@]43C)[C@H]12 [Madecassic acid, madecassic acid] the EC50 (T. b. brucei S427WT; [3]) was 18.1 µg/mL and 36 µM, the EC50 (U937 cells; [4]) was 90.7 µg/mL and 180 µM and the “SI, selectivity index relative to T. b. brucei WT: EC50(U937)/EC50(TbbWT)” value (U937 cells) was 5.0. For the same molecule, the RF resistance factor (T. b. brucei B48 [1]; Table 5) was 0.88, the EC50 (T. b. brucei B48 [1]; [5]) was 16 µg/mL and 31.7 µM and the RF resistance factor (T. congolense 6C3; Table 7) was 0.88. The EC50 (T. congolense 6C3; [6]) was 19.8 µg/mL and 59.1 µM and the EC50 (T. congolense IL3000; [7]) was 22.6 µg/mL and 67.6 µM.
C=C(C)[C@@H]1CC[C@]2(C(=O)O)CC[C@]3(C)[C@H](CC[C@@H]4[C@@]5(C)CC[C@H](O)C(C)(C)[C@@H]5CC[C@]43C)[C@@H]12 [Betulinic acid, betulinic acid] was tested, and the EC50 (T. b. brucei S427WT; [3]) was 24.2 µg/mL and 53.1 µM, the EC50 (U937 cells; [4]) was 51.7 µg/mL and 113 µM and the “SI, selectivity index relative to T. b. brucei WT: EC50(U937)/EC50(TbbWT)” value (U937 cells) was 2.1. For the same molecule, the RF resistance factor (T. b. brucei B48 [1]; Table 5) was 0.81, the EC50 (T. b. brucei B48 [1]; [5]) was 19.6 µg/mL and 42.9 µM and the RF resistance factor (T. congolense 6C3; Table 7) was 1.05. It also gave an EC50 (T. congolense 6C3; [6]) of 18.1 µg/mL and an EC50 (T. congolense IL3000; [7]) of 17.2 µg/mL.
With CC(C)(O)[C@@H]1CC[C@]2(CO)CC[C@]3(C)[C@H](CC[C@@H]4[C@@]5(C)CC[C@H](O)C(C)(C)[C@@H]5CC[C@]43C)[C@@H]12 [Hydroxybetulin, 20-hydroxybetulin] the “AVG EC50 T. b. brucei S427WT” value (T. b. brucei S427WT; Table 3, n = 3) was 2.04 µg/mL, the “AVG EC50 T. b. brucei S427WT” value (T. b. brucei S427WT; [8]) was 2.04 µg/mL and the EC50 (T. b. brucei S427WT; [8]) was 4.44 µM. For the same molecule, the “AVG EC50 T. b. brucei S427WT” value (T. b. brucei S427WT; Table 5, purified compounds, n = 3, listed as hydroxybetulin) was 2.0 ± 0.1 µg/mL, the “fold more active than betulinic acid against T. b. brucei” value (T. b. brucei S427WT; relative to betulinic acid) was 15 fold and the “AVG EC50 U937 cells” value (U937 cells; Table 4) was 47.0 µg/mL. For the same molecule, the “AVG EC50 U937 cells” value (U937 cells; Table 8, purified compounds) was 47.0 µg/mL, the EC50 (U937 cells; Table 8, purified compounds) was 102 µM and the “SI, selectivity index relative to T. b. brucei WT: EC50(U937)/EC50(TbbWT)” value (U937 cells) was 23.0. For the same molecule, the “selectivity index against WT T. congolense” value (U937 cells; U937 vs WT T. congolense) was 8.1, the “selectivity index against resistant T. brucei” value (U937 cells; U937 vs resistant T. brucei) was 48.5 and the “selectivity index against resistant T. congolense” value (U937 cells; U937 vs resistant T. congolense) was 17.0. For the same molecule, the “RF resistance factor (EC50 B48/EC50 WT)” value (T. b. brucei B48 [1]; Table 3) was 0.47, the “AVG EC50 T. b. brucei B48” value (T. b. brucei B48 [1]; Table 3, pentamidine-resistant, n = 3) was 2.09 µg/mL and the RF resistance factor (T. b. brucei B48 [1]; Table 5) was 0.47. The “AVG EC50 T. b. brucei B48” value (T. b. brucei B48 [1]; [8]) was 0.97 µg/mL, the EC50 (T. b. brucei B48 [1]; [9]) was 2.09 µM and the “fold activity against drug-resistant strain of T. b. brucei” value (T. b. brucei B48 [1]; [10]) was > 2 fold. The “AVG EC50 C. fasciculata” value (C. fasciculata) was 23.4 µg/mL, the RF resistance factor (T. congolense 6C3; Table 6) was 0.48 and the “AVG EC50 T. congolense 6C3” value (T. congolense 6C3; Table 6, diminazene-resistant, n = 3) was 6.09 µg/mL. The “AVG EC50 T. congolense 6C3” value (T. congolense 6C3; [11]) was 2.77 µg/mL, the EC50 (T. congolense 6C3; [11]) was 6.09 µM and the “fold activity against drug-resistant strain of T. congolense” value (T. congolense 6C3; [10]) was > 2 fold. For the same molecule, the “Effect on in vitro growth of T. b. brucei B48 (cell count over time)” value (“Effect … (cell count over time)” below) (T. b. brucei B48 [2]) was “more trypanostatic effect”, the “Effect … (cell count over time)” value (T. b. brucei B48 [2]; listed as 20-hydroxybetulin) was “trypanostatic” and the “AVG EC50 T. congolense IL3000” value (T. congolense IL3000; Table 6, n = 3) was 5.77 µg/mL. The “AVG EC50 T. congolense IL3000” value (T. congolense IL3000; [11]) was 5.77 µg/mL and the “AVG EC50 T. congolense IL3000” value (T. congolense IL3000; Table 7, purified compounds, n = 3, listed as hydroxybetulin) was 5.8 ± 1.3 µg/mL.
With N=C(N)c1ccc(/N=N/Nc2ccc(C(=N)N)cc2)cc1 [Diminazene, reference compound] the RF resistance factor (T. congolense 6C3; Table 6) was 5.90, the RF resistance factor (T. congolense 6C3; Table 7) was 5.5 and the EC50 (T. congolense 6C3; Trypanosoma congolense, Table 6, diminazene control, footnote: EC50 in µM) was 1.54 µM. It also gave an EC50 (T. congolense 6C3; [6]) of 1.55 µM, an EC50 (T. congolense IL3000; Trypanosoma congolense, read-out: AVG EC50 T. congolense IL3000, Table 6, diminazene control, footnote: EC50 in µM) of 0.26 µM and an EC50 (T. congolense IL3000; Trypanosoma congolense, read-out: AVG EC50 T. congolense IL3000, Table 7, purified compounds, n = 3) of 0.28 µM.
For N=C(N)c1ccc(OCCCCCOc2ccc(C(=N)N)cc2)cc1 [Pentamidine, pentamidine, reference compound], the EC50 (T. b. brucei S427WT; Trypanosoma brucei, Table 3, pentamidine control, footnote: values in µM) was 0.0034 µM, the EC50 (T. b. brucei S427WT; [3]) was 0.0043 µM and the “RF resistance factor (EC50 B48/EC50 WT)” value (T. b. brucei B48 [1]; Table 3) was 210. For the same molecule, the “RF resistance factor (EC50 B48/EC50 WT)” value (T. b. brucei B48 [1]; Table 3, listed as pentamidine) was 210.8, the RF resistance factor (T. b. brucei B48 [1]; Table 5) was 145 and the EC50 (T. b. brucei B48 [1]; Trypanosoma brucei, read-out: AVG EC50 T. b. brucei B48, Table 3, pentamidine control, footnote: values in µM) was 0.721 µM. The EC50 (T. b. brucei B48 [1]; [5]) was 0.62 µM and the “Effect … (cell count over time)” value (T. b. brucei B48 [2]) was “parasites were almost completely eliminated from the media after 32 h”.
In the case of C=C(C)[C@@H]1CC[C@]2(CO)CC[C@]3(C)[C@H](CC[C@@H]4[C@@]5(C)CC[C@H](O)C(C)(C)[C@@H]5CC[C@]43C)[C@@H]12 [Betulin, betulin], the EC50 (T. b. brucei S427WT; [3]) is reported as 26.6 µg/mL and 60.1 µM, the EC50 (U937 cells; [4]) is reported as 55.8 µg/mL and 126 µM and the “SI, selectivity index relative to T. b. brucei WT: EC50(U937)/EC50(TbbWT)” value (U937 cells) is reported as 2.1. For the same molecule, the RF resistance factor (T. b. brucei B48 [1]; Table 5) was 0.84, the EC50 (T. b. brucei B48 [1]; [5]) was 22.3 µg/mL and 50.5 µM and the RF resistance factor (T. congolense 6C3; Table 7) was 1.03. The EC50 (T. congolense 6C3; [6]) was 22.1 µg/mL and 49.9 µM and the EC50 (T. congolense IL3000; [7]) was 21.5 µg/mL.
For CC(CC/C=C(/CO)C(=O)O)C1CCC2(C)C3CCC4C(C)(C)C(O)CCC45CC35CCC12C (stereo not shown) [Hydroxymangiferolic acid, 27-hydroxyisomangiferolic acid], the “AVG EC50 T. b. brucei S427WT” value (T. b. brucei S427WT; [8]) was 13.6 µg/mL, the EC50 (T. b. brucei S427WT; [8]) was 28.8 µM and the EC50 (U937 cells; Table 8, purified compounds) was 260 µM. For the same molecule, the “SI, selectivity index relative to T. b. brucei WT: EC50(U937)/EC50(TbbWT)” value (U937 cells) was >7.4, the RF resistance factor (T. b. brucei B48 [1]; Table 5) was 0.87 and the “AVG EC50 T. b. brucei B48” value (T. b. brucei B48 [1]; [8]) was 11.8 µg/mL. For the same molecule, the EC50 (T. b. brucei B48 [1]; [9]) was 25 µM, the RF resistance factor (T. congolense 6C3; Table 7) was 0.94 and the “AVG EC50 T. congolense 6C3” value (T. congolense 6C3; [11]) was 15.7 µg/mL. The EC50 (T. congolense 6C3; [11]) was 33.2 µM, the “AVG EC50 T. congolense IL3000” value (T. congolense IL3000; [11]) was 16.7 µg/mL and the EC50 (T. congolense IL3000; Table 7, purified compounds, n = 3, read-out: AVG EC50 T. congolense IL3000) was 35.3 µM.
